# Reference: patent US5958966A, “Treatment of aberrant cellular states with biomodulators” (University of New Mexico, priority 1995, dated 1999)
# “Also recorded” adds a separate entry of the source. Where two headings read alike, the source gives them in different places.
# Key:
# [1] = tested on: Canine glioma cells; assay: generation time of canine glioma cells (Formula II compound); format: cell-based; conditions: for Tg: control 18.6
# Protocol: The cells were harvested every 72 hours after the controls had reached 85% confluency. Generation time (Tg) was determined as the number of hours required for the cell population to double.
# Mean of triplicate determinations. Canine glioma cells were grown under conditions to promote exponential growth characteristics; 2×10^5cells in a T-25 flask. The cells were harvested every 72 hours after the controls had reached approximately 85% confluency. The drug was added at the initiation of culture in DMSO, the control cultures had just DMSO. The drug concentration was adjusted with DMS0 so that the final concentration of DMS0 was always 0.5%.
# [2] = tested on: human peripheral blood leukocytes (HPBL); assay: stimulation / inhibition of IgG production in HPBL; format: cell-based; conditions: for activation at 0.1 µM: Homo sapiens, Leukocyte, 90 h
# Protocol: Human peripheral blood leukocytes were cultured in a standard tissue culture medium. Aliquots of these cultured cells (1,000,000 cells/ml medium) were cultured for 6 hours, and the specified amount of Formula II compound was added; the cells were then cultured for an additional 90 hours. Sheep red blood cells (SRBC) conditioned with class-specific (IpG) goat anti-human antiserum (1:400) for 2 hours; then guinea pig complement (2%) for 2 hours were conjugated to Protein A as described in detail in Radioimmunoimaging and Radioimmunotherapy, Eds. S. W. Burchiel and B. A. Rhodes, Elsevier Science Publishing; New York, 1983, pp. 125-127, incorporated herein by reference.
# [3] = tested on: human colon carcinoma cell line (LS-174); assay: generation time of LS-174 human colon carcinoma cells; format: cell-based; conditions: for Tg: control 26.5
# Protocol: The procedure of Example VA, above, was repeated except a human colon carcinoma cell line (LS-174) was used instead of the canine glioma cell line.
# Mean of triplicate determinations. LS-174 cells (human colon carcinoma) were grown under conditions to promote exponential growth characteristics; 2×10^5 cells in a T-25 flask. The cells were harvested every 72 hours after the controls had reached approximately 85% confluency. The drug was added at the initiation of culture in DMSO, the control cultures had just DMS0. The drug concentration was adjusted with DMSO so that the final concentration of DMS0 was always 0.5%.
# [4] = tested on: canine glioma tumors; assay: canine glioma tumors in nude rats; format: in vivo, nude rat
# Protocol: C57 BL/6 mice were injected I.M. with B-16 melanoma cells, maintained in culture in the right flank or shoulder. Tumor growth was monitored on a daily basis by physical measurement and by MRI/MRS on a weekly basis. Treatment routes were via intraperitoneal injection using various CAD between 1 μg and 0.001 μg per animal on a M, W, F injection schedule. The animals were terminated by CO2 when the tumors had become 1.0 cm in diameter. Lung metastases were counted.
# Various biomodulators were tested in vivo for their effects on canine glioma tumors established and monitored as above for mice, but in nude rats.
# The histology stain toluidine blue is in the lower right hand position for orientation.
# [5] = tested on: P-815 mastocytoma cells; assay: P-815 cytotoxic T lympholysis / cell mediated lympholysis; format: cell-based, mouse; conditions: hydrocortisone 2 mg day -2; hydroxyurea 10^-5 M
# Protocol: In this case the P-815 is injected into the H-2 incompatible host and in the Brunner and Cerotini model an antigen specific lympholysis event occurs with an optimum on day 11 at an effector/target ratio of 100:1 with 30% lysis. If the spleens of the injected animals are removed on day three there is no observable cytotoxicity; however, if the spleen cells are treated with biomodulator (in this case PWM at 100 ng) there is an enormous increase in the cytotoxicity event. […] Our model involves at least seven point cytotoxicity curves and for comparison purposes we calculate the slope, intercept and correlation coefficients, and then use that data for further analyses. The slope represents a measure of the efficiency of kill and in the biomodulator treated cells is approximately […] versus 0.24 for the control antigen driven response on day 11. This represents a seven fold increase in simple cytotoxicity efficiency. […]
# P 815 mastocytoma cells are grown in culture or as an ascites (DBA H-2/d) and injected into C57BL/6J mice (H-2/b). […] The specificity of the response is assessed by testing the cytotoxicity against EL-4 cells ([…]) which are NK insensitive and histoincompatible with the original target. […]
# Seven effector/target ratios are tested and the percent lysis calculated. […]
# [6] = tested on: canine glioma (CG) cells; assay: cell surface oligosaccharide display of canine glioma cells (lectin binding, Scatchard, Gibb's Free Energy); format: cell-based
# Excerpt: Taken together these affinity differences account for almost 10 kcal of additional binding energy retrievable from interactions in the case of the IMR-90s which is unavailable to the CGs. […] This treatment regimen results in an increase in the Tg of the cells as well as changes in the proton linewidth of unfrozen water (shown below). […] This display more closely resembles that of the growth regulated IMR-90s. It should be noted that the actual lines on these figures are visual estimates however, the data in the boxes are calculated values. It is these values that are used to estimate the GFE for comparison purposes.
# The cell surface oligosaccharide display was assessed by methods developed previously. In brief, cells from a sub-culturing were aliquotted into 96 well trays at 5×10^5 cells per ml, 100 μL aliquots. After 16 hours of culture the cells were washed, fixed, and blocked with 0.1% BSA/PBS. Optimal lectin concentrations (5 μg/ml)were used to give 80 to 90% saturation of the available sites. Three carbohydrate ligands at 10 μg concentrations in triplicate or quadruplicate were then used to prepare competition curves for the lectin binding. The Bound over Free (B/F) ratio was calculated and the Ligand microprocessor program was used to determine the optimal fit of the data to a polynomial generated model. The Gibb's Free Energy (GFE) was calculated from the Scatchard data on the competition assay by the following equation: GFE=-RT 1n Kequit. The proton NMR linewidth measurements were conducted as described previously.
# [7] = tested on: canine glioma; assay: canine glioma implanted in dog brain (Formula II / TF compounds); format: in vivo
# Protocol: Canine glioma was implanted surgically into the brains of four outbred dogs (2×10^6 cells). This procedure normally causes death by tumor growth in 14-28 days. […]
# Tumor progress was assessed at weekly intervals by NMR, employing GdDTPA as imaging agent. This method illuminates vascularization at the surface of the tumor, and provides images which correlate well with neuropathological observations.
# [8] = tested on: HPBL / IMR-90 cells; assay: biomodulator assay; format: cell-based, human
# Excerpt: a. Biomodulators cause, at a concentration in the general range of 100 pM-1 μm, the differentiation of lymphocytes. This differentiation can be detected by, for example, the increased production of specific and non-specific antibodies in response to the presence of biomodulator in the culture medium, e.g., according to the HPBL method discussed above in C, or the alteration in the class of antibodies being produced by a cell line, e.g., from IgM to IgG, e.g., according to the method disclosed in the same reference.
# b. Biomodulators cause, at a concentration in the general range of 100 pM-1 μm, the alteration of the cell surface oligosaccharide display of IMR-90 cells in culture as discussed in A. above.
# Activity in both of these assays is a necessary and sufficient measure of whether or not a given substance is a biomodulator, as defined herein.
# [9] = tested on: T-independent antigen (TNP-Ficoll) response; assay: in vivo humoral response to TNP-Ficoll (plaque assay); design: species or system mouse; conditions: mice
# Protocol: In this case both IgM and IgG hapten specific responses were recorded as well as non-antigen specific plaque responses (Ig-PFC) using a Protein A coated red blood cell target.
# The TNP-Ficoll antigen is administered as the SRBC antigen was above, by i.p. injection and the response assessed by conjugating the TNP hapten directly to the SRBC target, thus obviating any potential "carrier" effect. […] In this case, a third experimental parameter has been added to the study, the production of non-specific immunoobulin (Ig-PFC). This parameter provides information on the general status of the humoral response regardless of antigen specificity. The TNP-Ficoll antigen does elicit a modest Ig-PFC response but little if any IgG specific response. […] In this case there is a very large specific and non-specific augmentation.
# [10] = 10 nM, 12 × 4 h (so in the source)
# [11] = pre-treated, 10 ng/kg I.P. M, W, F
# [12] = 1 ng/kg I.P. begun same day as implantation
molecule,measurement,setting,value
CC(C)OC(=O)C[C@H](O)C[C@@H](O)/C=C/c1c(C(C)C)nc(-c2ccccc2)n1-c1ccc(F)cc1 (relative stereo) [Compound IIe'],% Change (Tg),"[1]; 10 nM, 72x2 h",129%
same,Tg,"[1]; 10 nM, 72x2 h",24.0 h
same,% Change (Tg),"[1]; 10 nM, 72x3 h",180%
same,Tg,"[1]; 10 nM, 72x3 h",33.4 h
same,% Change (Tg),"[1]; 10 nM, 72x4 h",155%
same,Tg,"[1]; 10 nM, 72x4 h",28.9 h
same,% Change (Tg),"[1]; 10 nM, 72 h",136%
same,contact inhibition,[1]; cells approaching confluency,showed evidence of contact inhibition as the cells approached confluency
same,slowing of the growth rate,"[1]; three passages, 10 nM",1.8 fold
same,Stimulation of IgG Production,[2]; 1&100 nM,1990%
same,IgG production in words,[2]; HPBL,stimulated IgG production
same,activation at 0.1 µM,"[2]; lower concentrations (100 nM), read-out: enhancement of IgG production",< 350%
same,% Change (Tg),[3]; [10],414%
same,Tg,[3]; [10],109.6 h
same,% Change (Tg),"[3]; 10 nM, 72 × 2 h",400%
same,Tg,"[3]; 10 nM, 72 × 2 h",106.2 h
same,% Change (Tg),"[3]; 10 nM, 72 × 3 h",416%
same,Tg,"[3]; 10 nM, 72 × 3 h",110.3 h
same,% Change (Tg),"[3]; 10 nM, 72 h",320%
same,prolongation of generation time,"[3]; three passages, 10 nM",4.16 fold
same,generation time after drug withdrawal,"[3]; two passages, data not shown",returned to control levels
CC(C)OC(=O)C[C@H](O)C[C@H](O)/C=C/c1c(C(C)C)nc(-c2ccccc2)n1-c1ccc(F)cc1 [HHD-3],effect on tumor growth,[4],"showed no regression effect, just delay of the control growth pattern"
CC(C)OC(=O)C[C@H](O)C[C@@H](O)/C=C/c1c(C(C)C)nc(-c2ccccc2)n1-c1ccc(F)cc1 [HHD-7],effect on tumor growth,[4],showed the best regression
C[C@]12CCC(=O)C=C1CC[C@@H]1[C@@H]2[C@@H](O)C[C@@]2(C)[C@H]1CC[C@]2(O)C(=O)CO [Hydrocortisone],influence on the biomodulator effect on CML,[5],reduced the biomodulator effect
NC(=O)NO [Hydroxyurea],influence on the biomodulator effect on CML,[5],does not inhibit the biomodulator effect on CML
CC(C)OC(=O)C[C@H](O)C[C@H](O)/C=C/c1c(C(C)C)nc(-c2ccccc2)n1-c1ccc(F)cc1 [IId],activation at 0.1 µM,"[2]; 100 nM, read-out: Stimulation of IgG Production",320%
O[C@H]1[C@H]2[C@H](O)CCCN2C[C@H]1O [Swainsonine (Sw)],exposure time for increase in GFE,[6],approximately 300 hours
CC(C)c1nc(-c2ccccc2)n(-c2ccc(F)cc2)c1/C=C/[C@H](O)C[C@H](O)CC(=O)O [TF-002],later tumor status,"[7]; later studies, data not shown",free of tumor
same,day of appearance of small tumor,[7]; [11],12 days
same,tumor regressed by day,[7]; [11],≤ 19 days
CC(C)c1c(/C=C/C(O)CC(O)CC(=O)O)n(-c2ccc(F)cc2)c2ccccc12 (stereo not drawn) [TF-004],complete regression by day,[7]; [12],≤ 21 days
same,substantial regression by day,[7]; [12],≤ 15 days
same,complete regression by day,[7]; treatment begun on Day 11,≤ 30 days
same,substantial regression by day,[7]; treatment begun on Day 11,≤ 21 days
Cc1c(/C=C/C(O)CC(O)CC(=O)O)ccc2c1C(O)CC(C)C2 (stereo not drawn) [colletruncoic acid],biomodulator activity,[8],has been shown to have biomodulator activity
Dextran,PFC response to TNP-Ficoll,[9],some stimulatory effect; also recorded: marked cellular proliferation but little differentiative response
